These results are taken from ChEMBL document CHEMBL2390885, “Discovery of pyrido[2,3-d]pyrimidine-based inhibitors of HCV NS5A” (Bioorg Med Chem Lett, 2013).

Values after ≈ are worked out from the molar mass of the structure shown. Active and inactive are the calls of the source. The calls are words filed in the database; no cut-off is given here.

Series [1] can be described thus: Half life in dog at 2.5 mg/kg, po. The note with it: in vivo.
Series [2] deals with Hepatitis C virus. Put plainly: Antiviral activity against Hepatitis C virus genotype 1b by replicon assay. The class given is functional, organism-based, Hepacivirus hominis.
Series [3] can be described thus: Half life in Sprague-Dawley rat at 5 mg/kg, po. The series is classed as ADME, organism-based. Also on record: dose 5 mg/kg, route oral. The following applies: in vivo.
Series [4] in a line: Clearance in Sprague-Dawley rat at 5 mg/kg, iv. The following applies: in vivo. The series is classed as ADME, organism-based. Also on record: dose 5 mg/kg, route intravenous.
Series [5] concerns Hepatitis C virus. Put plainly: Antiviral activity against Hepatitis C virus genotype 1b by replicon assay in presence of human plasma. The series is classed as functional, organism-based, Hepacivirus hominis. In general terms: Replicon systems follow genome replication, usually without infectious particles.
Series [6] is described as follows: Clearance in dog at 2.5 mg/kg, iv. The series is classed as ADME, organism-based, Canis lupus familiaris. Also on record: dose 2.5 mg/kg, route intravenous. The note with it: in vivo.
Series [7] is described as follows: Cmax in Sprague-Dawley rat at 5 mg/kg, po. The series is classed as ADME, organism-based. Also on record: dose 5 mg/kg, route oral. The note with it: in vivo.
Series [8] has as its system Hepatitis C virus. The experiment in a line: Antiviral activity against Hepatitis C virus genotype 1a by replicon assay. The class given is functional, organism-based, Hepacivirus hominis. The following applies: subtype 1a.
The nature of series [9]: AUC in Sprague-Dawley rat at 5 mg/kg, po. The class given is ADME, organism-based. Also on record: dose 5 mg/kg, route oral. The following applies: plasma.
Series [10] is described as follows: AUC in dog at 2.5 mg/kg, po. The note with it: plasma.
A short description of series [11]: Cmax in dog at 2.5 mg/kg, po. The note with it: in vivo.
Series [12] in a line: Oral bioavailability in Sprague-Dawley rat at 5 mg/kg. The series is classed as ADME, organism-based. The following applies: in vivo.
The nature of series [13]: Oral bioavailability in dog at 2.5 mg/kg. The following applies: in vivo.
The nature of series [14]: Solubility in aqueous buffer. The series is classed as physicochemical.
Series [15] is described as follows: Half life in dog at 2.5 mg/kg, iv. The following applies: in vivo. The series is classed as ADME, organism-based, Canis lupus familiaris. Also on record: dose 2.5 mg/kg, route intravenous.
Series [16] is described as follows: Half life in Sprague-Dawley rat at 5 mg/kg, iv. The class given is ADME, organism-based. On the set-up: dose 5 mg/kg, route intravenous. The note with it: in vivo.
Series [17] is described as follows: Half life in iv dosed chimpanzee. The class given is ADME, organism-based, Pan troglodytes. The following applies: in vivo.
Series [18] deals with Hepatitis C virus. The experiment in a line: Antiviral activity against Hepatitis C virus genotype 1b harboring NS5A Q24R/K26R double mutant infected in chimpanzee assessed as reduction in viral load at 2.5 mg/kg, iv administered every 8 hrs measured after 32 hrs. The series is classed as functional, organism-based. Also on record: dose 2.5 mg/kg. The following applies: Hepacivirus hominis.

Series [19] deals with Hepatitis C virus. The experiment in a line: Antiviral activity against Hepatitis C virus genotype 1b infected in chimpanzee assessed as log reduction in viral load at 2.5 mg/kg, iv administered every 8 hrs measured after 32 hrs relative to control. The class given is functional, Hepacivirus hominis.
Series [20] concerns Hepatitis C virus. Put plainly: Antiviral activity against Hepatitis C virus genotype 1b harboring NS5A Y93C/K26R double mutant infected in chimpanzee assessed as reduction in viral load at 2.5 mg/kg, iv administered every 8 hrs measured after 32 hrs. The class given is functional, organism-based. The note with it: Hepacivirus hominis. On the set-up: dose 2.5 mg/kg.
The test system of series [21] is Hepatitis C virus. The experiment in a line: Antiviral activity against Hepatitis C virus genotype 1b harboring NS5A K26R mutant infected in chimpanzee assessed as reduction in viral load at 2.5 mg/kg, iv administered every 8 hrs measured after 32 hrs. The series is classed as functional, organism-based. On the set-up: dose 2.5 mg/kg. The following applies: Hepacivirus hominis.

Series [22] deals with Hepatitis C virus. Put plainly: Antiviral activity against Hepatitis C virus genotype 1b harboring NS5A L28M mutant infected in chimpanzee assessed as reduction in viral load at 2.5 mg/kg, iv administered every 8 hrs measured after 32 hrs. Also on record: dose 2.5 mg/kg. The following applies: Hepacivirus hominis. The series is classed as functional, organism-based.

For the compound `CC(C)c1ccc2c(Nc3cc(C(=O)N[C@@H](C)c4ccccc4)ccc3Sc3ccc(N)cc3)ncnc2n1`, the half-life was 3 h in series [1], 2.7 h in series [3], 3.2 h in [15] and 1.6 h in series [16]. Moreover, the EC50 in the series with Hepatitis C virus [2] worked out at 7 nM; in the series on Hepatitis C virus [5] it was 1200 nM; with Hepatitis C virus [8], 45 nM. Further, the results for the clearance in series [4] and in [6] were 5.5 mL/min/kg and 4.33 mL/min/kg, respectively. Moreover, the Cmax in [7] was 1480 ng/mL; in series [11] it was 490 ng/mL. Moreover, the results for the exposure (AUC) in [9] and in series [10] were 6490 ng·h/mL and 2350 ng·h/mL, respectively. The bioavailability was determined as 42.4% in series [12] and 18.8% in [13]. In [14], this compound displayed a solubility of 5 µM (≈ 2.67 µg/mL).
`CC(C)c1ccc2c(Nc3cc(C(=O)N[C@@](C)(CO)c4ccccc4)ccc3Sc3ccc(N)cc3)ncnc2n1`: the results for the EC50 in the series on Hepatitis C virus [2], in the series on Hepatitis C virus [5] and in the series on Hepatitis C virus [8] were 2 nM, 34 nM and 188 nM, respectively. In addition, the half-life in series [3] was 2.7 h; in series [17], 4.1 h; in series [16] it was 1.1 h. In series [4], this compound showed a clearance of 12.5 mL/min/kg. In series [7], this compound gave a Cmax of 320 ng/mL. Besides, the result in the series with Hepatitis C virus [18], with Hepatitis C virus [20], in the series on Hepatitis C virus [21] and in the series on Hepatitis C virus [22] was inactive. The AUC in [9] was 900 ng·h/mL. The FC in the series with Hepatitis C virus [19] is listed as 1.65. Moreover, the bioavailability in series [12] was 13.3%. In addition, in series [14], the solubility was 19.7 µM (≈ 11.1 µg/mL).

As a reminder, the half-life is the time in which the quantity being followed falls by half. A higher half-life goes with slow loss. Usually EC50 stands for the concentration that produces a half-maximal response. Usually clearance stands for a measure of how efficiently the substance is removed, as volume per time. Lower therefore signals inefficient removal. By Cmax is commonly meant the highest concentration seen after dosing. As usually defined, the AUC is the area under the concentration-time curve, a measure of exposure. Low readings indicate low exposure, high ones high exposure. A word on the bioavailability: it is the share of a dose that reaches the circulation, judged against a reference dose that is usually intravenous. A higher bioavailability goes with good availability. A word on the solubility: it is how much of the substance goes into solution per volume.
